Results reported in PMC6592956, “Characterization of Porcine Hepatic and Intestinal Drug Metabolizing CYP450: Comparison with Human Orthologues from A Quantitative, Activity and Selectivity Perspective” (Scientific Reports, 2019).
Entries after “also recorded” stand apart in the source; their conditions may differ. Marks after values point to notes of the source that are not given here.

Tests used:
CYP2D [1] = target: T1, CYP2D (Sus scrofa, UniProt O46658); test: Incubation with inhibitors: DXM-O-demethylation in porcine hepatic microsomes; type: in vitro ADME, conventional pig; conditions: for Inhibition of DXM-O-demethylation by inhibitor: porcine hepatic microsomes; for Ratio of residual activity (substrate + inhibitor versus substrate only), CYP2D DXM: DXM 10 µM, inhibitors SFZ 0.5, α-NFV 0.1 (1 µM), QND 0.1, KET 0.3, DDC 20, 8-MPS 1 µM, mean (SD) of 3
T1 construct: from tissue; host or cells: pig liver microsomes
T1 sequence (O46658 1-500): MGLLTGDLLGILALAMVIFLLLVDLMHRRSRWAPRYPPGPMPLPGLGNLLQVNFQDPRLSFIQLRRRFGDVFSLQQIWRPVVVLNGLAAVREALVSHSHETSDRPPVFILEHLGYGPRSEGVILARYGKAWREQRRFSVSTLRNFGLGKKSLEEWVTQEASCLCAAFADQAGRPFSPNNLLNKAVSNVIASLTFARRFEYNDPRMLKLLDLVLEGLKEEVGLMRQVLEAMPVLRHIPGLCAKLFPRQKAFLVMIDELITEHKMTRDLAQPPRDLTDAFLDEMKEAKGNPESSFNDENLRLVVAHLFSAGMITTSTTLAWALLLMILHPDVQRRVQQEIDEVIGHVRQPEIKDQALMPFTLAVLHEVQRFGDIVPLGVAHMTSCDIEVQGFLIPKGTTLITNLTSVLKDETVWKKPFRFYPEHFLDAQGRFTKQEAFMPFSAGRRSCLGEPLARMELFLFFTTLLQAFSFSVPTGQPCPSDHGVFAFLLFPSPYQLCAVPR
Protocol: (§1) The inhibitors used were α-NFV, 8-MPS, KET, SFZ, QND, and DDC for CYP1A/2 A, CYP2A, CYP3A, CYP2C, CYP2D, and CYP2E1, respectively. […] All incubations were performed in triplicate.

porcine CYP2D25 = tested on: porcine CYP2D25; design: method as in Skaanild, 2006; Hosseinpour and Wikvall, 2000; conditions: ref Skaanild, 2006; Hosseinpour and Wikvall, 2000; cited from earlier work
CYP2D [2] = tested on: CYP2D; design: method as in Cyrus et al., 2011 and references herein; conditions: human; ref Cyrus et al., 2011 and references herein; cited from earlier work
CYP2A [3] = tested on: CYP2A; design: method as in Cyrus et al., 2011 and references herein; conditions: human; ref Cyrus et al., 2011 and references herein; cited from earlier work
CYP2A [4] = test: Incubation with inhibitors: CM-hydroxylation in porcine hepatic microsomes; type: in vitro ADME, conventional pig; conditions: for Ratio of residual activity (substrate + inhibitor versus substrate only), CYP2A CM: CM 1 µM, inhibitors SFZ 0.5, α-NFV 0.1 (1 µM), QND 0.1, KET 0.3, DDC 20, 8-MPS 1 µM, mean (SD) of 3
Protocol: as §1

CYP1A = test: Incubation with inhibitors: PH-O-deethylation in porcine hepatic microsomes; type: in vitro ADME, conventional pig; conditions: PH 20 µM; inhibitors SFZ 0.5, α-NFV 0.1 (1 µM), QND 0.1, KET 0.3, DDC 20, 8-MPS 1 µM; mean (SD) of 3
Protocol: as §1

CYP2E = test: Incubation with inhibitors: CZ-hydroxylation in porcine hepatic microsomes; type: in vitro ADME, conventional pig; conditions: for Ratio of residual activity (substrate + inhibitor versus substrate only), CYP2E CZ: CZ 50 µM, inhibitors SFZ 0.5, α-NFV 0.1 (1 µM), QND 0.1, KET 0.3, DDC 20, 8-MPS 1 µM, mean (SD) of 3; for Inhibition of CZ-hydroxylation by inhibitor: porcine hepatic microsomes
Protocol: as §1

CYP2C [5] = conditions: for Ratio of residual activity (substrate + inhibitor versus substrate only), CYP2C TB: TB 200 µM, inhibitors SFZ 0.5, α-NFV 0.1 (1 µM), QND 0.1, KET 0.3, DDC 20, 8-MPS 1 µM, mean (SD) of 3
CYP3A [6] = test: Incubation with inhibitors: MDZ-hydroxylation in porcine hepatic microsomes; type: in vitro ADME, conventional pig; conditions: for Ratio of residual activity (substrate + inhibitor versus substrate only), CYP3A MDZ: MDZ 20 µM, inhibitors SFZ 0.5, α-NFV 0.1 (1 µM), QND 0.1, KET 0.3, DDC 20, 8-MPS 1 µM, mean (SD) of 3
Protocol: as §1

CYP2D6 = tested on: CYP2D6; design: method as in Cyrus et al, 2011; conditions: ref Cyrus et al, 2011; cited from earlier work
CYP2E1 = tested on: CYP2E1; design: method as in Baranovà et al., 2005; Pratt-hyatt et al., 2010; conditions: human; ref Baranovà et al., 2005; Pratt-hyatt et al., 2010; cited from earlier work
[7] = tested on: hepatic CYP450 abundancies; test: Pearson correlation between hepatic CYP450 abundancies and probe activities
[8] = tested on: porcine intestinal CYP450 enzymes; conditions: for Vmax in intestinal microsomes as % of the hepatic Vmax: intestinal versus hepatic microsomes
[9] = tested on: porcine intestinal CYP450 enzymes; test: in vitro; conditions: pig
porcine CYP450 = conditions: outcome of general decision tree, Figure 4
human CYP450 = conditions: Supplementary Table 4; ref Yuan et al., 2002 and references herein; cited from earlier work
CYP2C [10] = tested on: T2, CYP2C; test: Group mean of log10 Km (Km in µM) for porcine hepatic microsomes from 8 female pigs, probe metabolism at 37 °C, LC-MS/MS.; type: biochemical, pig liver microsomes; conditions: n = 8
T2 construct: native enzymes in hepatic or duodenal microsomes

CYP2C [11] = tested on: T2, CYP2C; test: Group mean of log10 Km (Km in µM) for porcine hepatic microsomes from 8 male pigs, probe metabolism at 37 °C, LC-MS/MS.; type: biochemical, pig liver microsomes; conditions: n = 8
CYP3A [12] = conditions: human; ref Cyrus et al., 2011 and references herein; cited from earlier work

C=C[C@H]1C[N@@]2CC[C@H]1C[C@@H]2[C@@H](O)c1ccnc2ccc(OC)cc12 [Quinidine, quinidine]
Inhibition of DXM-O-demethylation by inhibitor (CYP2D [1]; listed as QND): did not inhibit; also recorded: no inhibition | Inhibition of porcine CYP2D25 (porcine CYP2D25): not to inhibit | Ki (CYP2D [2]): 30 to 400 nM

COc1c2occc2cc2ccc(=O)oc12 [8-methoxypsoralen]
Ki (CYP2A [3]): 100 to 1500 nM

Nc1ccc(S(=O)(=O)Nc2ccnn2-c2ccccc2)cc1 [Sulphaphenazole, sulphaphenazole]
Ratio of residual activity (substrate + inhibitor versus substrate only), CYP2A CM (CYP2A [4]): 1.05 (0.023) | Ratio of residual activity (substrate + inhibitor versus substrate only), CYP1A PH (CYP1A): 1.09 (0.030) | Ratio of residual activity (substrate + inhibitor versus substrate only), CYP2E CZ (CYP2E): 1.03 (0.061) | Ratio of residual activity (substrate + inhibitor versus substrate only), CYP2D DXM (CYP2D [1]): 0.97 (0.080) | Ratio of residual activity (substrate + inhibitor versus substrate only), CYP2C TB (CYP2C [5]): 0.98 (0.135) | Ratio of residual activity (substrate + inhibitor versus substrate only), CYP3A MDZ (CYP3A [6]): 1.20 (0.050) | Inhibition of CYP2D6 in men (CYP2D6): do not significantly inhibit

CCN(CC)C(=S)S [Diethyldithiocarbamate, diethyldithiocarbamate]
Ratio of residual activity (substrate + inhibitor versus substrate only), CYP2A CM (CYP2A [4]): 0.74 (0.079) | Inhibition of CM-hydroxylation by inhibitor (CYP2A [4]; porcine hepatic microsomes): decreased | Ratio of residual activity (substrate + inhibitor versus substrate only), CYP1A PH (CYP1A): 1.04 (0.010) | Ki (CYP2E1): 12200 to 38000 nM | Ratio of residual activity (substrate + inhibitor versus substrate only), CYP2E CZ (CYP2E): 0.87 (0.003)- | Inhibition of CZ-hydroxylation by inhibitor (CYP2E): decreased | Ratio of residual activity (substrate + inhibitor versus substrate only), CYP2D DXM (CYP2D [1]): 0.93 (0.084) | Ratio of residual activity (substrate + inhibitor versus substrate only), CYP2C TB (CYP2C [5]): 0.87 (0.046) | Inhibition of TB-hydroxylation by inhibitor (CYP2C [5]; porcine hepatic microsomes): decreased | Ratio of residual activity (substrate + inhibitor versus substrate only), CYP3A MDZ (CYP3A [6]): 1.15 (0.074)

Cc1ncc2n1-c1ccc(Cl)cc1C(c1ccccc1F)=NC2 [MDZ, Midazolam]
Pearson's correlation coefficient, MDZ activity vs hepatic CYP3A22 abundance ([7]; level 1 (MDZ 0.50 µM)): 0.54 | Pearson's correlation coefficient, MDZ activity vs hepatic CYP3A22 abundance ([7]; level 2 (MDZ 2.00 µM)): 0.62 | Pearson's correlation coefficient, MDZ activity vs hepatic CYP3A22 abundance ([7]; level 3 (MDZ 5.00 µM)): 0.69* | Pearson's correlation coefficient, MDZ activity vs hepatic CYP3A22 abundance ([7]; level 4 (MDZ 10.0 µM)): 0.71* | Pearson's correlation coefficient, MDZ activity vs hepatic CYP1A2 abundance ([7]; level 5 (MDZ 20.0 µM)): 0.51 | Pearson's correlation coefficient, MDZ activity vs hepatic CYP3A22 abundance ([7]; level 5 (MDZ 20.0 µM)): 0.72* | Pearson's correlation coefficient, MDZ activity vs hepatic CYP3A46 abundance ([7]; level 5 (MDZ 20.0 µM)): 0.57 | Pearson's correlation coefficient, MDZ activity vs hepatic CYP1A2 abundance ([7]; level 6 (MDZ 50.0 µM)): 0.56 | Pearson's correlation coefficient, MDZ activity vs hepatic CYP3A22 abundance ([7]; level 6 (MDZ 50.0 µM)): 0.65* | Pearson's correlation coefficient, MDZ activity vs hepatic CYP3A46 abundance ([7]; level 6 (MDZ 50.0 µM)): 0.68* | Duodenum a (Hill coefficient) ([8]; duodenal microsomes, pool of 16 pigs, n=3, mean (SD)): 1.26 (0.048) | Ileum a (Hill coefficient) ([8]; ileal microsomes, pool of 16 pigs, n=3, mean (SD)): 1.56 (0.45) | Vmax in intestinal microsomes as % of the hepatic Vmax [8]: 2% | Jejunum a (Hill coefficient) ([8]; jejunal microsomes, pool of 16 pigs, n=3, mean (SD)): 1.41 (0.043) | Km at 10 min ([9]; Duodenum Km, duodenal microsomes, pool of 16 pigs, n=3, mean (SD)): 22.1 µM | Km at 10 min ([9]; Ileum Km, ileal microsomes, pool of 16 pigs, n=3, mean (SD)): 16.2 µM | Km at 10 min ([9]; Jejunum Km, jejunal microsomes, pool of 16 pigs, n=3, mean (SD)): 23.1 µM | Enzyme involvement: High affinity (porcine CYP450): CYP3A | Km (human CYP450): 3 to 5 µM

CCCCNC(=O)NS(=O)(=O)c1ccc(C)cc1 [TB, tolbutamide]
Pearson's correlation coefficient, TB activity vs hepatic CYP2C33 abundance ([7]; level 1 (TB 5.00 µM)): 0.53 | Pearson's correlation coefficient, TB activity vs hepatic CYP2C49 abundance ([7]; level 1 (TB 5.00 µM)): 0.64* | Pearson's correlation coefficient, TB activity vs hepatic CYP2C33 abundance ([7]; level 2 (TB 10.0 µM)): 0.55 | Pearson's correlation coefficient, TB activity vs hepatic CYP2C49 abundance ([7]; level 2 (TB 10.0 µM)): 0.65* | Pearson's correlation coefficient, TB activity vs hepatic CYP2C33 abundance ([7]; level 3 (TB 50.0 µM)): 0.62* | Pearson's correlation coefficient, TB activity vs hepatic CYP2C49 abundance ([7]; level 3 (TB 50.0 µM)): 0.68* | Pearson's correlation coefficient, TB activity vs hepatic CYP2C33 abundance ([7]; level 4 (TB 100 µM)): 0.62* | Pearson's correlation coefficient, TB activity vs hepatic CYP2C49 abundance ([7]; level 4 (TB 100 µM)): 0.71* | Pearson's correlation coefficient, TB activity vs hepatic CYP2C33 abundance ([7]; level 5 (TB 200 µM)): 0.62* | Pearson's correlation coefficient, TB activity vs hepatic CYP2C49 abundance ([7]; level 5 (TB 200 µM)): 0.69* | Pearson's correlation coefficient, TB activity vs hepatic CYP2C33 abundance ([7]; level 6 (TB 400 µM)): 0.61 | Pearson's correlation coefficient, TB activity vs hepatic CYP2C49 abundance ([7]; level 6 (TB 400 µM)): 0.72* | Vmax in intestinal microsomes as % of the hepatic Vmax [8]: 2% | Km at 10 min ([9]; duodenal microsomes): 1410 µM | log_Km, female (CYP2C [10]): 3,3239 | log_Km, male (CYP2C [11]): 3,0641 | Enzyme involvement: Low affinity (porcine CYP450): CYP2C, CYP3A

CC(=O)N1CCN(c2ccc(OCC3COC(Cn4ccnc4)(c4ccc(Cl)cc4Cl)O3)cc2)CC1 (stereo not shown) [Ketoconazole, ketoconazole]
Inhibition of CZ-hydroxylation by inhibitor (CYP2E): 20% | Inhibition of DXM-O-demethylation by inhibitor (CYP2D [1]): could not inhibit | Effect of inhibitor on MDZ-hydroxylation (CYP3A [6]; porcine hepatic microsomes): potent inhibitors | Ki (CYP3A [12]): […]
